One test has as its system annexin V/δ-PKC complex. As to the kind of experiment: co-immunoprecipitation of annexin V/δ-PKC complex from CHO cells. Format: cell-based, hamster. Here is the method:
The complexes were immunoprecipitated with anti-δ-PKC antibodies and probed for the presence of annexin V at the combined molecular weight of about 110 kD.
CHO-K1 cells (available through the ATCC) were grown in F-12 (HAM) nutrient mixture supplemented with GLUTAMAX, 10% fetal bovine serum, and antibiotics (100 units/ml penicillin and […] streptomycin sulfate, all from Invitrogen Corp.). The cells were cultured at 37° C. under 5% CO2. At 48 hours prior to the study, the cells were serum starved. They were stimulated with 10 nM phorbol 12-myristate 13-acetate (PMA) (available through LC Laboratories) or with 5 mM H2O2 (available through Sigma Chemical Corp.) for the indicated duration ranging from about 30 seconds to about 5 minutes, a technique well-known to one of skill in the art. The cells were washed with cold PBS, and homogenized on ice with trituration in homogenization buffer (20 mM Tris pH 7.4, 2 mM EDTA, 10 mM EGTA, 0.25M sucrose, 12 mM β-mercaptoethanol, protease inhibitor cocktail (available through Sigma Chemical Corp)), 0.1% TRITON X-100, and 1% formaldehyde.
It was observed that the 0.1% TRITON extracts all of the translocatable PKC from the cell. After 30 min at 4° C., the lysates were quenched with 0.14M glycine for 20 min at 4° C., and the samples were spun at 14K rpm at 4° C. The supernatant was incubated with 1 μg anti-δ-PKC antibody (available through Santa Cruz Biotechnology) for 1 hour, followed by exposure to protein-G beads (available through Invitrogen Corp.) for 3 hours at 4° C. The beads were then washed with wash buffer (20 mM Tris pH 7.5, 2 mM EDTA, 100 mM NaCl, 12 mM β-mercaptoethanol, 0.1% TRITON), and separated on 7.5% SDS-PAGE, transferred to nitrocellulose, and probed with anti-annexin V (available through Santa Cruz Biotechnology), followed by visualization using an enhanced chemiluminescence (ECL) method.

Another test deals with isolated rat hearts. As to the kind of experiment: ex vivo model of ischemia and reperfusion in isolated rat hearts. Conditions: 1 μM. Here is the method: FIG. 6C compares the infarct sizes that were measured on both sides of the tissue slices and averaged. […] In FIG. 6D, creatine phosphokinase (CPK) release was measured in the heart perfusate during the reperfusion.
In a further test the test system is ε-PKC. As to the kind of experiment: PMA-induced translocation of ε-PKC in CHO cells. It counts as cell-based, hamster. To be noted: peptide pretreatment. Here is the method:
(§1) The CHO cells of Example 1 were fractionated, stimulated, and washed with cold PBS, scraped in homogenization buffer, and spun at 100,000 g for 30 min at 4° C., resulting in the soluble fraction. The pellet was then resuspended in a homogenization buffer with 1% TRITON X-100, and spun under the same conditions. Where applicable, the cells were pre-incubated with 1 μM peptide for 15 minutes prior to stimulation. The samples were then analyzed using a Western blot, and the loading was corrected for protein concentration using an internal control such as actin.

The test system of the next test is δ-PKC/annexin V. As to the kind of experiment: δ-PKC/annexin V binding ELISA assay.
Test [1] has as its system δ-PKC. As to the kind of experiment: PMA-induced translocation of δ-PKC from soluble to particulate fraction in CHO cells. Format: cell-based, hamster. Conditions: 1 μM peptide pretreatment, 5 minutes of PMA stimulation. As for the experimental part:
as §1

A further test concerns the target T1, annexin V (Homo sapiens, UniProt P08758).
T1 sequence (P08758 1-320): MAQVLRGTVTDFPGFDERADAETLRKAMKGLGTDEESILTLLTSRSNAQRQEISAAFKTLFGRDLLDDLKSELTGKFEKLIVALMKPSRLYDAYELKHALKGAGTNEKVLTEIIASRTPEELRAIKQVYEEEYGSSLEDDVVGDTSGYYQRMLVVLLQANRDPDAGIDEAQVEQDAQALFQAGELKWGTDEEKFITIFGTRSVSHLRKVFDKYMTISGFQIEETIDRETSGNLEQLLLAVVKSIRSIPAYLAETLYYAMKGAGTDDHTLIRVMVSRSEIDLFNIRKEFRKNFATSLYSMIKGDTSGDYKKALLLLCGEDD
As to the kind of experiment: overlay binding assay on immobilized annexin V. To be noted: immobilized annexin V on nitrocellulose, overlay 37° C. 30 min, Western blotting. As for the experimental part: A binding assay was performed in vitro, using an immobilized annexin V with the δ-PKC, δ-V1 (SEQ ID NO:18) (the C2 domain of δ-PKC), δ-V5 (SEQ ID NO:19), and ε-V1 (SEQ ID NO:20) peptides. These domains are recognized in the art as participating in protein-protein interactions.
10 μg of the annexin V was separated on 12% SDS-PAGE gel and transferred to nitrocellulose, and then cut into strips. The strips were incubated with blocking buffer (50 mM Tris pH 7.5, 200 mM NaCl, 3% bovine serum albumin, 0.1% PEG20). The strips were then incubated in overlay buffer (50 mM Tris pH 7.5, 200 mM NaCl, 1% PEG20, 12 mM β-mercaptoethanol) in the presence where appropriate of 30 μg crude bacterial cell lysate containing fusion proteins of myelin basic protein (MBP)-delta V1 PKC (MBP-δV1), glutathione-S-transferase-delta V5 PKC (GST-δV5), and full length sequences of δ-PKC or rat purified ε-PKC (SEQ ID NO:21) at 37° C. for 30 min. The strips where then washed with wash buffer (50 mM Tris pH 7.5, 200 mM NaCl, 0.1% PEG20, 12 mM β-mercaptoethanol), and then incubated with fixative (0.2% formaldehyde in PBS) and neutralizing solution (0.2M glycine in PBS) at room temperature 20 min each. After washing with buffer, the strips were probed with antibodies according to the overlay protein, and resulting bands were visualized using ECL Western blotting.

Test [2] deals with δ-PKC. As to the kind of experiment: real-time confocal imaging of YFP-δPKC translocation in CHO cells. Format: cell-based, hamster. Conditions: 10 μM pretreatment for 30 minutes, 100 nM PMA, vs untreated. Here is the method: CHO cells were grown on chambered #1 Borosilicate coverglass (Lab-Tek), transfected at 50% confluency using Fugene 6 (Roche), according to the manufacturer's instructions, with CFP-annexin V and YFP-δPKC cloned into the pECFP-C1 and pEYFP-C1 vectors, respectively (Clontech). The cells were serum starved for 24 hours. Real-time confocal imaging was conducted on a spinning disk Nipkow confocal microscope, and the cells were viewed using an inverted Olympus IX70 microscope with a 40× oil immersion Olympus objective (1.35 NA). Images were acquired using a CCD camera (Hamamatsu) with 2×2 pixel binning. […]
Fluorescence intensity was measured using METAMORPH data analysis software (Universal Imaging). To monitor the translocation of the PKC and the increases in FRET signal, a small region of interest was selected from each cell and fluorescence intensity values were graphed against time and normalized to the initial fluorescence. FRET was calculated using a formula that corrects for bleed-through and donor concentration: FRET=(I(442-530)-αI(442-480)-βI(515-530))/I(442-480). The α and β coefficients were calculated from singly transfected cells, where α=I(442-530)/I(442-480)=47.6% of CFP bleed-through into the YFP channel, and β=I(442-530)/I(515-530)=14.4% of YFP excitation from the CFP channel.

Data on six molecules can be found in US20090081786A1, “Peptide sequences for modulation of protein kinase C” (priority 2006, published 2009).

As for `OO` [H2O2], the “association between annexin V and δ-PKC” value with annexin V/δ-PKC complex (H2O2 5 mM, 0.5-1 minute treatment) is “transient association”.
On to `CCCCCCCCCCCCCC(=O)O[C@@H]1[C@@H](C)[C@@]2(O)[C@@H](C=C(CO)C[C@]3(O)C(=O)C(C)=C[C@@H]23)[C@@H]2C(C)(C)[C@]12OC(C)=O` [PMA, phorbol 12-myristate 13-acetate], for which the “increase in the amount of annexin V/δ-PKC complex” value in the test with annexin V/δ-PKC complex (10 nm PMA, within the first 0.5 minutes of treatment) is given as roughly 4 fold.
For the molecule “EpAnxV: pAnxV in which the arginine in annexin V was replaced with the glutamate found in δ-PKC (SEQ ID NO:33) (YGRKKRRQRRRCCLQANEDPD; listed as Homo sapiens)”, in the test with isolated rat hearts (10 minutes prior to 30-minute no-flow ischemia and 10 minutes at onset of 60 minutes reperfusion, TTC staining), the “reduction of infarct size” value is “had no effect”. Moreover, in the test on isolated rat hearts (CPK measured during reperfusion), the “reduction in necrosis (creatine phosphokinase release in heart perfusate)” value is “did not show any statistical difference from the control heart”. Also, the “ischemia-induced δ-PKC-mediated damage to the heart” value in the test with isolated rat hearts (isolated rat hearts) is on record as “did not inhibit”. Further, in the test on ε-PKC, the “PMA-induced translocation of ε-PKC” value is listed as “neither peptide affected”. For the same molecule, the “δ-PKC/annexin V binding in ELISA” value in the test with δ-PKC/annexin V was “no significant effect”.
As to “LQANRDPD [pAnxV, annexin V-derived peptide, annexin V residues 157-164, conjugated to TAT47-57 carrier peptide]”, the “δ-PKC/annexin V complex formation (immunoprecipitation)” value in the test on annexin V/δ-PKC complex (peptide pretreatment) is given as “blocked”. For the same molecule, the “PMA-induced translocation of δ-PKC to the particulate fraction” value with δ-PKC [1] is given as “blocked”. The “PMA-induced translocation of ε-PKC” value in the test on ε-PKC is “neither peptide affected”. Also, the “δ-PKC/annexin V binding in ELISA” value with δ-PKC/annexin V is given as “inhibited”.
Turning to “δ-V5: V5 domain of δ-PKC (SEQ ID NO:19), used as glutathione-S-transferase fusion (PKVKSPSDYSNFDPEFLNEKPQLSFSDKNLIDSMDQEAFHGFSFVNPKFEQFLDI; left off: a dimerising Fc or GST)”, the “binding to annexin V” value with annexin V was “bind to the annexin V”.
Regarding `COC(=O)Nc1nc2ccc(C(=O)c3cccs3)cc2[nH]1` [nocodazole], in the test with δ-PKC [2], the “translocation profile of overexpressed δ-PKC” value is on record as “did not alter the translocation profile”.
